Results published in article PMC10300829 (2023).

What was measured:
[1] = tested on: C9-24mer (DNA, G4) GGGGCCGGGGCCGGGGCCGGGGCC; experiment: CD melting; details: K+ 5 mM; 30 mM Tris-HCl pH 7.4; 2 µM DNA, 8 µM compound (4 equivalents)
[2] = tested on: C9-RNA (RNA, G4) GGGGCCGGGGCCGGGGCCGGGGCC; experiment: CD melting; details: K+ 5 mM; 30 mM Tris-HCl pH 7.4; 5 µM RNA, 2 equivalents (10 µM); Tm 76 to 93 °C
[3] = tested on: Dup I + II (DNA, duplex) GGGCATAGTGCGTGGCGTTTAGC/GCTAAACGCCACGCACTATGCCC; experiment: CD and native PAGE; details: K+ 5 mM; 30 mM Tris-HCl pH 7.4; co-annealed; PAGE with 8 µM Fangchinoline, 2 µM each strand
[4] = tested on: C9-24mer G + C (C9-24mer with C9-24mer-C) (DNA, other) GGGGCCGGGGCCGGGGCCGGGGCC/GGCCCCGGCCCCGGCCCCGGCCCC; experiment: CD and native PAGE; details: K+ 5 mM; 30 mM Tris-HCl pH 7.4; co-annealed; PAGE with 8 µM Fangchinoline; parallel GQ induced
[5] = tested on: C9-48mer (DNA, G4) GGGGCCGGGGCCGGGGCCGGGGCCGGGGCCGGGGCCGGGGCCGGGGCC; experiment: CD melting at 265 nm; details: K+ 5 mM; 30 mM Tris-HCl pH 7.4; 1 µM DNA; Tm 90 °C at 1 equivalent, undetectable above 4 equivalents
[6] = tested on: FRET I + II (DNA, G4) GGGGCCGGGGCCGGGGCCGGGGCCAGAGGTAAAAGGATAATGGCCACGGTGCGGACGGC/GCCGTCCGCACCGTGGCCATTATCCTTTTACCTCT; experiment: FRET (Cy3/Cy5) and CD; details: K+ 100 mM; 30 mM Tris-HCl pH 7.4; 2 µM DNA, 8-24 µM compound; FRET efficiency falls to 0.46
[7] = tested on: C9-24mer (DNA, G4) GGGGCCGGGGCCGGGGCCGGGGCC; experiment: CD titration at 265 nm, Hill fit; details: K+ 5 mM; 30 mM Tris-HCl pH 7.4; co-annealed; 2 µM DNA; per GQ unit; ligand induces parallel GQ; apparent
[8] = tested on: C9-48mer (DNA, G4) GGGGCCGGGGCCGGGGCCGGGGCCGGGGCCGGGGCCGGGGCCGGGGCC; experiment: CD titration at 265 nm, Hill fit; details: K+ 5 mM; 30 mM Tris-HCl pH 7.4; co-annealed; 1 µM DNA; per GQ unit; ligand induces parallel GQ; apparent

ΔTm [1]: 6 °C
ΔTm [2]: 17 °C
binding [3]: no
binding [4]: yes
binding [5]: yes
binding [6]: yes
Kb [7]: (4.0 ± 0.3) × 10^5 M^-1
Kb [8]: (6.6 ± 0.2) × 10^5 M^-1
SMILES: COc1ccc2cc1Oc1ccc(cc1)C[C@H]1c3cc(c(OC)cc3CCN1C)Oc1c(O)c(OC)cc3c1[C@H](C2)N(C)CC3
